Data taken from ChEMBL document CHEMBL1133367, “Structure-activity relationship studies of chloromethyl ketone derivatives for selective human chymase inhibitors” (Bioorg Med Chem Lett, 2000).
pIC50: −log10 of the molar value.

Experiments:
Chymotrypsinogen A = Chymotrypsinogen A (Bos taurus, UniProt P00766); test: Inhibitory activity against alpha-chymotrypsin (alpha-CT)
Chymase = biological target: T1, Chymase (Homo sapiens, UniProt P23946); test: Inhibitory activity against human serine protease chymase
T1 sequence (P23946 whole entry): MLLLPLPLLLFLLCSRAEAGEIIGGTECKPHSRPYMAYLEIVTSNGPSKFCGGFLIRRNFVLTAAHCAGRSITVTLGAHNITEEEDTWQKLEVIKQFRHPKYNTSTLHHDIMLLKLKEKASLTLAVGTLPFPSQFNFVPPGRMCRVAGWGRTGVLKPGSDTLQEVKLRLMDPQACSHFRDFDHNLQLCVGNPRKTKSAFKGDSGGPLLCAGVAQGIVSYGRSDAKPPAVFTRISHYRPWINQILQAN

Trypsin = Trypsin (Sus scrofa, UniProt P00761); test: Inhibitory activity against porcine pancreatic trypsin (TRP)
Chain of Trypsin (P00761 whole entry): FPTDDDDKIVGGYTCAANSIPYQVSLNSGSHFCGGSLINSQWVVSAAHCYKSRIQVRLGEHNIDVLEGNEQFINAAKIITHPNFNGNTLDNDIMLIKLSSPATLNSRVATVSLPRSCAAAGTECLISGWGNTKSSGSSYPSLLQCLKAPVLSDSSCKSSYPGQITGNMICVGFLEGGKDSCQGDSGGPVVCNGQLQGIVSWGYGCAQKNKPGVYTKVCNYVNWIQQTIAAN

Cathepsin G = biological target: T2, Cathepsin G (Homo sapiens, UniProt P08311); test: Inhibitory activity against human leukocyte cathepsin G
T2 sequence (P08311 whole entry): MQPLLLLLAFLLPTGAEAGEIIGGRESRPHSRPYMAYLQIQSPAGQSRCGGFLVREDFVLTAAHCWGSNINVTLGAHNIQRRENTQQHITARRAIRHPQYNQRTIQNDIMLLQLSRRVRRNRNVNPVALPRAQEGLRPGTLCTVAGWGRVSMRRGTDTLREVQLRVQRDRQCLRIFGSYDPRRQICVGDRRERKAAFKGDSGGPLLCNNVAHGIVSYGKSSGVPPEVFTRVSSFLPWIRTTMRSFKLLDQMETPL

O=C(CCc1ccc(F)cc1)N[C@@H](Cc1ccccc1)C(=O)CCl
pIC50 (Chymotrypsinogen A): 4.00 | pIC50 (Chymase): 5.62 | pIC50 (Trypsin): < 3.00

O=C(CCc1ccccc1F)N[C@@H](Cc1ccccc1)C(=O)CCl
pIC50 (Chymotrypsinogen A): 4.47 | pIC50 (Chymase): 6.44

O=C(CCc1ccccc1)N[C@@H](Cc1ccccc1)C(=O)CCl
pIC50 (Chymotrypsinogen A): 4.43 | pIC50 (Trypsin): < 3.00

O=C(CCc1cccc(F)c1)N[C@@H](Cc1ccccc1)C(=O)CCl
pIC50 (Chymotrypsinogen A): 4.36 | pIC50 (Chymase): 5.92 | pIC50 (Trypsin): < 3.00

Cc1ccc(CCC(=O)N[C@@H](Cc2ccccc2)C(=O)CCl)cc1
pIC50 (Chymotrypsinogen A): 4.01 | pIC50 (Chymase): 6.52 | pIC50 (Trypsin): 3.59

CC(C)c1ccc(CCC(=O)N[C@@H](Cc2ccccc2)C(=O)CCl)cc1
pIC50 (Chymotrypsinogen A): 4.41 | pIC50 (Trypsin): 5.40

O=C(Cc1ccccc1)N[C@@H](Cc1ccccc1)C(=O)CCl
pIC50 (Chymotrypsinogen A): 4.70 | pIC50 (Chymase): 5.33 | pIC50 (Trypsin): < 3.00

Cc1ccc(S(=O)(=O)N[C@@H](Cc2ccccc2)C(=O)CCl)cc1 [TPCK]
pIC50 (Chymotrypsinogen A): 3.85 | pIC50 (Chymase): 5.48 | pIC50 (Cathepsin G): 3.96 | pIC50 (Trypsin): 3.70

COc1cccc(CCC(=O)N[C@@H](Cc2ccccc2)C(=O)CCl)c1OC
pIC50 (Chymotrypsinogen A): 5.66 | pIC50 (Trypsin): < 3.00

COc1ccc(CCC(=O)N[C@@H](Cc2ccccc2)C(=O)CCl)cc1OC
pIC50 (Chymotrypsinogen A): 4.29 | pIC50 (Trypsin): < 3.00

O=C(CCc1cccc(Cl)c1Cl)N[C@@H](Cc1ccccc1)C(=O)CCl
pIC50 (Chymotrypsinogen A): 5.00 | pIC50 (Chymase): 6.40 | pIC50 (Trypsin): 4.01

O=C(CCc1ccccc1Cl)N[C@@H](Cc1ccccc1)C(=O)CCl
pIC50 (Chymotrypsinogen A): 4.01 | pIC50 (Chymase): 6.22 | pIC50 (Trypsin): 4.07

COc1ccccc1CCC(=O)N[C@@H](Cc1ccccc1)C(=O)CCl
pIC50 (Chymotrypsinogen A): 5.57 | pIC50 (Trypsin): 4.47

O=C(CCc1ccc(C(F)(F)F)cc1)N[C@@H](Cc1ccccc1)C(=O)CCl
pIC50 (Chymotrypsinogen A): 4.77 | pIC50 (Trypsin): 4.52

O=C(N[C@@H](Cc1ccccc1)C(=O)CCl)OCc1ccccc1
pIC50 (Chymotrypsinogen A): 4.77 | pIC50 (Chymase): 6.40 | pIC50 (Trypsin): 3.68

Cc1cccc(CCC(=O)N[C@@H](Cc2ccccc2)C(=O)CCl)c1
pIC50 (Chymotrypsinogen A): 4.96 | pIC50 (Chymase): 6.37 | pIC50 (Trypsin): 3.54

O=C(/C=C/c1ccccc1)N[C@@H](Cc1ccccc1)C(=O)CCl
pIC50 (Chymotrypsinogen A): 5.06 | pIC50 (Chymase): 4.82 | pIC50 (Trypsin): 3.68

O=C(CCc1ccc(Cl)c(Cl)c1)N[C@@H](Cc1ccccc1)C(=O)CCl
pIC50 (Chymotrypsinogen A): 5.38 | pIC50 (Chymase): 5.43 | pIC50 (Trypsin): 4.55

O=C(CCc1ccc(O)cc1)N[C@@H](Cc1ccccc1)C(=O)CCl
pIC50 (Chymotrypsinogen A): 4.85 | pIC50 (Chymase): 5.57 | pIC50 (Trypsin): < 3.00

O=C(CCCCc1ccccc1)N[C@@H](Cc1ccccc1)C(=O)CCl
pIC50 (Chymotrypsinogen A): 4.74 | pIC50 (Chymase): 5.92 | pIC50 (Trypsin): < 3.00

COc1cccc(CCC(=O)N[C@@H](Cc2ccccc2)C(=O)CCl)c1
pIC50 (Chymotrypsinogen A): 4.07 | pIC50 (Trypsin): < 3.00

O=C(CCCc1ccccc1)N[C@@H](Cc1ccccc1)C(=O)CCl
pIC50 (Chymotrypsinogen A): 4.59 | pIC50 (Chymase): 5.60 | pIC50 (Trypsin): 3.16

O=C(CCc1cccc(O)c1)N[C@@H](Cc1ccccc1)C(=O)CCl
pIC50 (Chymotrypsinogen A): 5.28 | pIC50 (Chymase): 5.74 | pIC50 (Trypsin): 4.12

CCc1ccc(CCC(=O)N[C@@H](Cc2ccccc2)C(=O)CCl)cc1
pIC50 (Chymotrypsinogen A): 4.43 | pIC50 (Trypsin): 3.92

O=C(N[C@@H](Cc1ccccc1)C(=O)CCl)c1ccccc1
pIC50 (Chymotrypsinogen A): 5.03 | pIC50 (Chymase): 5.89 | pIC50 (Trypsin): 3.62

O=C(CCc1ccc(Cl)cc1)N[C@@H](Cc1ccccc1)C(=O)CCl
pIC50 (Chymotrypsinogen A): 4.74 | pIC50 (Chymase): 5.72 | pIC50 (Trypsin): < 3.00

O=C(CCc1cccc(Cl)c1)N[C@@H](Cc1ccccc1)C(=O)CCl
pIC50 (Chymotrypsinogen A): 4.64 | pIC50 (Chymase): 6.05 | pIC50 (Trypsin): 4.36

COc1ccc(CCC(=O)N[C@@H](Cc2ccccc2)C(=O)CCl)cc1
pIC50 (Chymotrypsinogen A): 5.66 | pIC50 (Cathepsin G): 5.03 | pIC50 (Trypsin): < 3.00

O=C(CCc1cccc(C(F)(F)F)c1)N[C@@H](Cc1ccccc1)C(=O)CCl
pIC50 (Chymotrypsinogen A): 4.70 | pIC50 (Trypsin): 4.47

Cc1ccccc1CCC(=O)N[C@@H](Cc1ccccc1)C(=O)CCl
pIC50 (Chymotrypsinogen A): 4.92 | pIC50 (Chymase): 6.11 | pIC50 (Trypsin): 3.22
